Measured values from US10258040B2, “Use of combinations comprising host defense inducers and biological control agents for controlling bacterial harmful organisms in useful plants” (Bayer CropScience Aktiengesellschaft, priority 2013, dated 2019).

Key:
[1] = tested on: Pseudomonas syringae pv. tomato; experiment: in vivo preventive test on Pseudomonas syringae pv. tomato (tomatoes); settings: sprayed one week before inoculation, evaluated 1 week after inoculation
Experimental: When the percentage of inhibition observed for the combination is greater than E, there is a synergistic effect. • Solvent: deionized water • tested compounds: […] To test for preventive activity, young plants are sprayed with the prepared compounds at three different rates of application. One week after application, the plants are inoculated with an aqueous suspension of Pseudomonas syringae pv. tomato. Inoculated plants are placed in a greenhouse chamber at 25° C. at a relative atmospheric humidity of 90%.

[2] = tested on: Potato; experiment: potato field seed/soil treatment test: plant and stem number, tuber weight, tuber grading; settings: T2: dose 12/100 kg seed, ST
Experimental: (§1) • Solvent: water • Tested compounds: Isotianil (FS200 formulation) at 30/24/12 ml/100 KG Potato Seed • Penflufen (Emesto FS240 formulation) at 10 ml/100 KG Potato Seed • Serenade ASO (Bacillus subtilis QST 713 strain/SC/1.34%) 5 Litres/ha (200 ml/area sown under 100 KG Seed)
(§2) To test for seed (tuber) treatment activity mixtures of Isotianil FS200 and Serenade ASO SC in combination with an optional further fungicide, ie Potato tubers are selected having reasonable Streptomyces scabies infestation. Seed was treated by spray on the tubers with hand knapsack sprayer using total volume of slurry 1500 ml/100 Kg Seed. Seed treatment was done with Isotianil FS 200 alone and in tank-mix with Penflufen.
(§3) Serenade ASO SC 1.34% @ 5000 ml/ha of formulated product was sprayed in the furrows just before the sowing of seeds. 100 KG seeds are sown on an area of 400 m^2 and Serenade ASO @ 200 ml formulated product was used in this test. Seed treated with Isotianil and optional Penflufen as method described above was used in combination with soil application of Serenade ASO in furrows before sowing. This study was conducted in natural field conditions chamber and observations for Streptomyces scabies infestation on potato was taken at the time of harvest.
(§4) The test is evaluated at harvest of potato crop.

[3] = tested on: Streptomyces scabies; experiment: in vivo preventive (seed growth test) test on Streptomyces scabies (potato), scab efficacy at harvest; settings: T2: dose 12/100 kg seed, ST, natural field conditions
Experimental: as §1, §2, §3, §4

N#Cc1ccccc1NC(=O)c1snc(Cl)c1Cl [(A.2) Isotianil, isotianil]
Efficacy in % found ([1]; application rate 50 g a.i.): 6% | Efficacy in % found ([1]; application rate 100 g a.i.): 0% | Efficacy in % found ([1]; application rate 200 g a.i.): 0% | % age Grading Large ([2]; potato tubers at harvest): 34% | % age Grading Small ([2]; potato tubers at harvest): 29% | % age Grading medium ([2]; potato tubers at harvest): 37% | % age increase/dicrease over conrol, No. of Plants/5 meter ([2]; potato, field): 3% | % age increase/dicrease over conrol, No. of stems/meter ([2]; potato, field): 7% | % age increase/dicrease over conrol, Weight of tuber/5 meter ([2]; potato, field): 11% | % age Efficacy Scab [3]: 68%
